Reference: the NIST ThermoML archive (doi:10.1016/j.jct.2015.09.020)
Numbers after ± are expanded uncertainties.

Test: mn = molality of the nth substance listed, in mol/kg
Settings: 101.3 kPa, Liquid

NCCCC(=O)O [4-aminobutanoic acid] + O
speed of sound (278.15 K, Frequency=2 MHz, Linear variable-path acoustic interferometer, m1 = 0.0495): 1431.4 ± 1.7 m/s | speed of sound (278.15 K, Frequency=2 MHz, Linear variable-path acoustic interferometer, m1 = 0.0732): 1433.1 ± 1.7 m/s | speed of sound (278.15 K, Frequency=2 MHz, Linear variable-path acoustic interferometer, m1 = 0.0959): 1435.4 ± 1.7 m/s | speed of sound (278.15 K, Frequency=2 MHz, Linear variable-path acoustic interferometer, m1 = 0.1193): 1436.9 ± 1.7 m/s | speed of sound (278.15 K, Frequency=2 MHz, Linear variable-path acoustic interferometer, m1 = 0.1412): 1439 ± 1.7 m/s | speed of sound (278.15 K, Frequency=2 MHz, Linear variable-path acoustic interferometer, m1 = 0.1828): 1442.1 ± 1.7 m/s | speed of sound (278.15 K, Frequency=2 MHz, Linear variable-path acoustic interferometer, m1 = 0.2085): 1444.1 ± 1.8 m/s | speed of sound (278.15 K, Frequency=2 MHz, Linear variable-path acoustic interferometer, m1 = 0.2388): 1446.9 ± 1.8 m/s | speed of sound (278.15 K, Frequency=2 MHz, Linear variable-path acoustic interferometer, m1 = 0.2699): 1449.7 ± 1.8 m/s | speed of sound (278.15 K, Frequency=2 MHz, Linear variable-path acoustic interferometer, m1 = 0.2922): 1452.3 ± 1.8 m/s | speed of sound (278.15 K, Frequency=2 MHz, Linear variable-path acoustic interferometer, m1 = 0.3224): 1455.4 ± 1.8 m/s | speed of sound (278.15 K, Frequency=2 MHz, Linear variable-path acoustic interferometer, m1 = 0.3534): 1457.4 ± 1.8 m/s | mass density (278.15 K, Pycnometric method, m1 = 0.0495): 1001.55 ± 0.28 kg/m3 | mass density (278.15 K, Pycnometric method, m1 = 0.0732): 1002.25 ± 0.28 kg/m3 | mass density (278.15 K, Pycnometric method, m1 = 0.0959): 1002.93 ± 0.28 kg/m3 | mass density (278.15 K, Pycnometric method, m1 = 0.1193): 1003.65 ± 0.29 kg/m3 | mass density (278.15 K, Pycnometric method, m1 = 0.1412): 1004.35 ± 0.29 kg/m3 | mass density (278.15 K, Pycnometric method, m1 = 0.1828): 1005.72 ± 0.3 kg/m3 | mass density (278.15 K, Pycnometric method, m1 = 0.2085): 1006.55 ± 0.31 kg/m3 | mass density (278.15 K, Pycnometric method, m1 = 0.2388): 1007.5 ± 0.32 kg/m3 | mass density (278.15 K, Pycnometric method, m1 = 0.2699): 1008.41 ± 0.32 kg/m3 | mass density (278.15 K, Pycnometric method, m1 = 0.2922): 1009.03 ± 0.33 kg/m3 | mass density (278.15 K, Pycnometric method, m1 = 0.3224): 1009.87 ± 0.34 kg/m3 | mass density (278.15 K, Pycnometric method, m1 = 0.3534): 1010.83 ± 0.36 kg/m3 | speed of sound (288.15 K, Frequency=3 MHz, Sing-around technique in a fixed-path interferometer, m1 = 0.0554): 1470.3 ± 1.2 m/s | speed of sound (288.15 K, Frequency=3 MHz, Sing-around technique in a fixed-path interferometer, m1 = 0.0877): 1472.6 ± 1.2 m/s | speed of sound (288.15 K, Frequency=3 MHz, Sing-around technique in a fixed-path interferometer, m1 = 0.0989): 1473.5 ± 1.2 m/s | speed of sound (288.15 K, Frequency=3 MHz, Sing-around technique in a fixed-path interferometer, m1 = 0.1173): 1474.9 ± 1.2 m/s | speed of sound (288.15 K, Frequency=3 MHz, Sing-around technique in a fixed-path interferometer, m1 = 0.1538): 1479 ± 1.3 m/s | speed of sound (288.15 K, Frequency=3 MHz, Sing-around technique in a fixed-path interferometer, m1 = 0.1809): 1481.1 ± 1.2 m/s | speed of sound (288.15 K, Frequency=3 MHz, Sing-around technique in a fixed-path interferometer, m1 = 0.211): 1483 ± 1.2 m/s | speed of sound (288.15 K, Frequency=3 MHz, Sing-around technique in a fixed-path interferometer, m1 = 0.2389): 1484.6 ± 1.3 m/s | speed of sound (288.15 K, Frequency=3 MHz, Sing-around technique in a fixed-path interferometer, m1 = 0.2692): 1486.5 ± 1.3 m/s | speed of sound (288.15 K, Frequency=3 MHz, Sing-around technique in a fixed-path interferometer, m1 = 0.2861): 1489.5 ± 1.4 m/s | speed of sound (288.15 K, Frequency=3 MHz, Sing-around technique in a fixed-path interferometer, m1 = 0.3181): 1492.3 ± 1.3 m/s | speed of sound (288.15 K, Frequency=3 MHz, Sing-around technique in a fixed-path interferometer, m1 = 0.3496): 1494.9 ± 1.4 m/s | mass density (288.15 K, Vibrating tube method, m1 = 0.0554): 1000.83 ± 0.11 kg/m3 | mass density (288.15 K, Vibrating tube method, m1 = 0.0877): 1001.66 ± 0.12 kg/m3 | mass density (288.15 K, Vibrating tube method, m1 = 0.0989): 1002.15 ± 0.13 kg/m3 | mass density (288.15 K, Vibrating tube method, m1 = 0.1173): 1002.71 ± 0.12 kg/m3 | mass density (288.15 K, Vibrating tube method, m1 = 0.1538): 1003.54 ± 0.13 kg/m3 | mass density (288.15 K, Vibrating tube method, m1 = 0.1809): 1004.28 ± 0.15 kg/m3 | mass density (288.15 K, Vibrating tube method, m1 = 0.211): 1005.14 ± 0.17 kg/m3 | mass density (288.15 K, Vibrating tube method, m1 = 0.2389): 1006.01 ± 0.18 kg/m3 | mass density (288.15 K, Vibrating tube method, m1 = 0.2692): 1006.87 ± 0.19 kg/m3 | mass density (288.15 K, Vibrating tube method, m1 = 0.2861): 1007.43 ± 0.2 kg/m3 | mass density (288.15 K, Vibrating tube method, m1 = 0.3181): 1008.36 ± 0.23 kg/m3 | mass density (288.15 K, Vibrating tube method, m1 = 0.3496): 1009.41 ± 0.26 kg/m3 | speed of sound (298.15 K, Frequency=3 MHz, Sing-around technique in a fixed-path interferometer, m1 = 0.0494): 1501.1 ± 1.2 m/s | speed of sound (298.15 K, Frequency=3 MHz, Sing-around technique in a fixed-path interferometer, m1 = 0.0781): 1503.4 ± 1.2 m/s | speed of sound (298.15 K, Frequency=3 MHz, Sing-around technique in a fixed-path interferometer, m1 = 0.1017): 1505.1 ± 1.2 m/s | speed of sound (298.15 K, Frequency=3 MHz, Sing-around technique in a fixed-path interferometer, m1 = 0.1227): 1506.8 ± 1.2 m/s | speed of sound (298.15 K, Frequency=3 MHz, Sing-around technique in a fixed-path interferometer, m1 = 0.1469): 1508.9 ± 1.3 m/s | speed of sound (298.15 K, Frequency=3 MHz, Sing-around technique in a fixed-path interferometer, m1 = 0.1846): 1511.8 ± 1.3 m/s | speed of sound (298.15 K, Frequency=3 MHz, Sing-around technique in a fixed-path interferometer, m1 = 0.1944): 1512.8 ± 1.3 m/s | speed of sound (298.15 K, Frequency=3 MHz, Sing-around technique in a fixed-path interferometer, m1 = 0.245): 1516.7 ± 1.3 m/s | speed of sound (298.15 K, Frequency=3 MHz, Sing-around technique in a fixed-path interferometer, m1 = 0.2746): 1519.2 ± 1.3 m/s | speed of sound (298.15 K, Frequency=3 MHz, Sing-around technique in a fixed-path interferometer, m1 = 0.2975): 1521.1 ± 1.3 m/s | speed of sound (298.15 K, Frequency=3 MHz, Sing-around technique in a fixed-path interferometer, m1 = 0.3196): 1522.6 ± 1.3 m/s | speed of sound (298.15 K, Frequency=3 MHz, Sing-around technique in a fixed-path interferometer, m1 = 0.3477): 1525 ± 1.4 m/s | mass density (298.15 K, Vibrating tube method, m1 = 0.0494): 998.48 ± 0.11 kg/m3 | mass density (298.15 K, Vibrating tube method, m1 = 0.0781): 999.35 ± 0.12 kg/m3 | mass density (298.15 K, Vibrating tube method, m1 = 0.1017): 1000.09 ± 0.12 kg/m3 | mass density (298.15 K, Vibrating tube method, m1 = 0.1227): 1000.7 ± 0.13 kg/m3 | mass density (298.15 K, Vibrating tube method, m1 = 0.1469): 1001.41 ± 0.14 kg/m3 | mass density (298.15 K, Vibrating tube method, m1 = 0.1846): 1002.51 ± 0.15 kg/m3 | mass density (298.15 K, Vibrating tube method, m1 = 0.1944): 1002.74 ± 0.14 kg/m3 | mass density (298.15 K, Vibrating tube method, m1 = 0.245): 1004.3 ± 0.18 kg/m3 | mass density (298.15 K, Vibrating tube method, m1 = 0.2746): 1004.99 ± 0.17 kg/m3 | mass density (298.15 K, Vibrating tube method, m1 = 0.2975): 1005.61 ± 0.21 kg/m3 | mass density (298.15 K, Vibrating tube method, m1 = 0.3196): 1006.38 ± 0.22 kg/m3 | mass density (298.15 K, Vibrating tube method, m1 = 0.3477): 1007.09 ± 0.21 kg/m3
